# Experimental data reported in US20250296971A1, “GASTRIC INHIBITORY PEPTIDE RECEPTOR LIGANDS” (priority 2021, published 2025).
# *1 amine or outer side, *2 acyl side, *3 side chain or, on linkers, in order; H or OH if unused. Where a SMILES comes first, the peptide text is derived from it. Bridges are numbered along the chain shown (N, C = ends). [ ]: non-standard residue; d: D form. The star is where a group is joined. X13 = O=C(CN1CCN2CCN3CCN(CC1)CC(=O)[O][Lu]([O]C(=O)C2)[O]C(=O)C3)NCCCOCCOCCOCCCN*; DOTA(Lu) = O=C1CN2CCN3CCN(CC(=O)*)CCN(CC2)CC(=O)[O][Lu]([O]1)[O]C(=O)C3; Trp(5-Cl) = N[C@@H](Cc1c[nH]c2ccc(Cl)cc12)C(=O)O; X6 = c1cc(CSCCN[*:2])nc(C[*:1])c1; X7 = c1cc(CSCCN[*:2])cc(C[*:1])c1; Hyp = O=C(O)[C@@H]1C[C@@H](O)CN1; X1 = O=C(CN1CCC(N[*:1])CC1)[*:2]; Suc = O=C(CCC(=O)[*:2])[*:1]; αMeS = C[C@](N)(CO)C(=O)O; Thp = NC1(C(=O)O)CCOCC1; Aib = CC(C)(N)C(=O)O; Sar = CNCC(=O)O
# Biological target: T1, GIPR (CHO-K1-hGIPR cells) (Homo sapiens, UniProt P48546)
# T1 construct: host or cells: CHO-K1
# T1 sequence (P48546 22-466): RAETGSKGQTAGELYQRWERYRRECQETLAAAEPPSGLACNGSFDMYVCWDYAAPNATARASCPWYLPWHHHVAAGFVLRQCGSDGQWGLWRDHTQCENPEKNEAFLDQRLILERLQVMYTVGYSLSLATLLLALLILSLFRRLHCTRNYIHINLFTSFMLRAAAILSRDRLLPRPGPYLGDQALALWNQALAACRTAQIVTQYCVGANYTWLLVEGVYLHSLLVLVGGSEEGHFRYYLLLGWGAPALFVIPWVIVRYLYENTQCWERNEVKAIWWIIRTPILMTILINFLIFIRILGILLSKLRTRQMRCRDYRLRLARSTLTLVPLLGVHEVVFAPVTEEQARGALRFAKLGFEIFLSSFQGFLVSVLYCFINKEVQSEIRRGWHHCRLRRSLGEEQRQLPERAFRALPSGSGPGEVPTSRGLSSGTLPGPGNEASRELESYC
# Assay: FACS binding assay
# Settings: pIC50 Category, competition with 20 nM GIP-057, 4° C., 1 hour
# How it was run: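 Peptide binding read by flow cytometry as APC-channel median fluorescence, fitted with a four-parameter logistic to yield EC50 or IC50. Cells were hGIPR-transfected CHO-K1 in PBS with 1% FCS, detected with 1 μg/mL APC-streptavidin, 30 min on ice.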
row,SMILES,IC50 [nM]
1,"CC[C@H](C)[C@@H]1NC(=O)[C@H](CC(C)C)NC(=O)[C@](C)(CO)NC(=O)[C@@H](NC(=O)[C@@H](CC(C)C)NC(=O)[C@H](CCC(=O)O)NC(=O)[C@@H]2CCCN2C(=O)[C@H](Cc2c[nH]c3ccc(Cl)cc23)NC(=O)[C@H](Cc2c[nH]c3ccccc23)NC(=O)[C@H](CC(=O)O)NC(=O)CCC(=O)NCCCOCCOCCOCCCNC(=O)CN2CCN3CCN4CCN(CC2)CC(=O)[O][Lu]([O]C(=O)C3)[O]C(=O)C4)CSCc2cccc(c2)CSCCNC1=O [GIP-157, LuDOTA-Ttds-Asp-Trp-5Clw-Pro-Glu-leu-[Cys(3MeBn)-Ams-Leu-Ile-AET]] ({X13-Suc}-DW[Trp(5-Cl)]PE[dL]C[αMeS]LI; linker 7-C via X7)",< 10
2,"CC[C@H](C)[C@@H]1NC(=O)[C@H](CC(C)C)NC(=O)C2(CCOCC2)NC(=O)[C@@H](NC(=O)[C@@H](CC(C)C)NC(=O)[C@H](CCC(=O)O)NC(=O)[C@@H]2CCCN2C(=O)[C@H](Cc2c[nH]c3ccc(Cl)cc23)NC(=O)[C@H](Cc2c[nH]c3ccccc23)NC(=O)[C@H](CC(=O)O)NC(=O)CCC(=O)NCCCOCCOCCOCCCNC(=O)CN2CCN3CCN4CCN(CC2)CC(=O)[O][Lu]([O]C(=O)C3)[O]C(=O)C4)CSCc2cccc(c2)CSCCNC1=O [GIP-158, LuDOTA-Ttds-Asp-Trp-5Clw-Pro-Glu-leu-[Cys(3MeBn)-Thp-Leu-Ile-AET]] ({X13-Suc}-DW[Trp(5-Cl)]PE[dL]C[Thp]LI; linker 7-C via X7)",< 10
3,"CC[C@H](C)[C@@H]1NC(=O)[C@H](CC(C)C)NC(=O)C(C)(C)NC(=O)[C@@H](NC(=O)[C@@H](CC(C)C)NC(=O)[C@H](CCC(=O)O)NC(=O)[C@@H]2C[C@@H](O)CN2C(=O)[C@H](Cc2c[nH]c3ccc(Cl)cc23)NC(=O)[C@H](Cc2c[nH]c3ccccc23)NC(=O)[C@H](CC(=O)O)NC(=O)CCC(=O)NCCCOCCOCCOCCCNC(=O)CN2CCN3CCN4CCN(CC2)CC(=O)[O][Lu]([O]C(=O)C3)[O]C(=O)C4)CSCc2cccc(c2)CSCCNC1=O [GIP-159, LuDOTA-Ttds-Asp-Trp-5Clw-Hyp-Glu-leu-[Cys(3MeBn)-Aib-Leu-Ile-AET]] ({X13-Suc}-DW[Trp(5-Cl)][Hyp]E[dL]C[Aib]LI; linker 7-C via X7)",< 10
4,"CC[C@H](C)[C@@H]1NC(=O)[C@H](CC(C)C)NC(=O)C(C)(C)NC(=O)[C@@H](NC(=O)[C@@H](CC(C)C)NC(=O)[C@H](CCC(=O)O)NC(=O)CN(C)C(=O)[C@H](Cc2c[nH]c3ccc(Cl)cc23)NC(=O)[C@H](Cc2c[nH]c3ccccc23)NC(=O)[C@H](CC(=O)O)NC(=O)CCC(=O)NCCCOCCOCCOCCCNC(=O)CN2CCN3CCN4CCN(CC2)CC(=O)[O][Lu]([O]C(=O)C3)[O]C(=O)C4)CSCc2cccc(c2)CSCCNC1=O [GIP-160, LuDOTA-Ttds-Asp-Trp-5Clw-Nmg-Glu-leu-[Cys(3MeBn)-Aib-Leu-Ile-AET]] ({X13-Suc}-DW[Trp(5-Cl)][Sar]E[dL]C[Aib]LI; linker 7-C via X7)",< 10
5,"CC[C@H](C)[C@@H]1NC(=O)[C@H](CC(C)C)NC(=O)C(C)(C)NC(=O)[C@@H](NC(=O)[C@@H](CC(C)C)NC(=O)[C@H](CCC(=O)O)NC(=O)[C@@H]2CCCN2C(=O)[C@H](Cc2c[nH]c3ccc(Cl)cc23)NC(=O)[C@H](Cc2c[nH]c3ccccc23)NC(=O)[C@H](CC(=O)O)NC(=O)CN2CCC(NC(=O)CN3CCN4CCN5CCN(CC3)CC(=O)[O][Lu]([O]C(=O)C4)[O]C(=O)C5)CC2)CSCc2cccc(c2)CSCCNC1=O [GIP-161, LuDOTA-APAc-Asp-Trp-5Clw-Pro-Glu-leu-[Cys(3MeBn)-Aib-Leu-Ile-AET]] ({DOTA(Lu)}-[X1]DW[Trp(5-Cl)]PE[dL]C[Aib]LI; linker 8-C via X7)",< 10
6,"CC[C@H](C)[C@@H]1NC(=O)[C@H](CC(C)C)NC(=O)C2(CCOCC2)NC(=O)[C@@H](NC(=O)[C@@H](CC(C)C)NC(=O)[C@H](CCC(=O)O)NC(=O)[C@@H]2C[C@@H](O)CN2C(=O)[C@H](Cc2c[nH]c3ccc(Cl)cc23)NC(=O)[C@H](Cc2c[nH]c3ccccc23)NC(=O)[C@H](CC(=O)O)NC(=O)CN2CCC(NC(=O)CN3CCN4CCN5CCN(CC3)CC(=O)[O][Lu]([O]C(=O)C4)[O]C(=O)C5)CC2)CSCc2cccc(n2)CSCCNC1=O [GIP-162, LuDOTA-APAc-Asp-Trp-5Clw-Hyp-Glu-leu-[Cys(2Lut)-Thp-Leu-Ile-AET]] ({DOTA(Lu)}-[X1]DW[Trp(5-Cl)][Hyp]E[dL]C[Thp]LI; linker 8-C via X6)",< 10
7,"CC[C@H](C)[C@@H]1NC(=O)[C@H](CC(C)C)NC(=O)C(C)(C)NC(=O)[C@@H](NC(=O)[C@@H](CC(C)C)NC(=O)[C@H](CCC(=O)O)NC(=O)[C@@H]2CCCN2C(=O)[C@H](Cc2c[nH]c3ccc(Cl)cc23)NC(=O)[C@H](Cc2c[nH]c3ccccc23)NC(=O)[C@H](CC(=O)O)NC(=O)CCC(=O)NCCCOCCOCCOCCCNC(=O)CN2CCN3CCN4CCN(CC2)CC(=O)[O][Lu]([O]C(=O)C3)[O]C(=O)C4)CSCc2cccc(n2)CSCCNC1=O [GIP-163, LuDOTA-Ttds-Asp-Trp-5Clw-Pro-Glu-leu-[Cys(2Lut)-Aib-Leu-Ile-AET]] ({X13-Suc}-DW[Trp(5-Cl)]PE[dL]C[Aib]LI; linker 7-C via X6)",< 10
